Earlier results in patent US20120202839A1, “METHODS AND COMPOSITIONS FOR DETERRING ABUSE OF ORALLY ADMINISTERED PHARMACEUTICAL PRODUCTS” (priority 2004, published 2012).

Conditions: oral ingestion; typical threshold

In the case of `O=S(=O)([O-])[O-].[Zn+2]` [ZINC SULFATE], the “amount ingested above which emesis is induced, typically” value is given as “more than 0.6 gm”.
